Test results published in patent US9630957B2, “2,3-butanediamide epoxide compound and preparation method and use thereof” (Institute of Pharmacology and Toxicology Academy of …, priority 2014, dated 2017).
≈ marks a conversion by molar mass, not a printed value.

How the values were obtained:
[1] = system: enterovirus EV71 (BrCr strain); assay: Activity screening for anti-enterovirus EV71: inhibition of cytopathic effect in Vero cells; format: cell-based; settings: for IC50: 100TCID50, Vero cells, CPE read when virus control reaches 4+, read-out: IC50 (half inhibitory concentration for enterovirus EV71); for SI (Selectivity Index = TC50/IC50): Vero cells
Method: Test item: Activity screening of the compounds for anti-enterovirus EV71
Test principle: Vero cells are used as viral host. The inhibition of the compound of the invention on the degree of cytopathic effect of Vero cells caused by enterovirus virus EV71 is determined.
1. Virus strain: enterovirus EV71 (BrCr, American Type Culture Collection, ATCC)
(§1) 2. Sample treatment: the compounds of the present invention are dissolved in DMSO or diluent to prepare stock solution which is stored at −20° C. The stock solution is formulated to suitable incipient concentration with culture solution immediately before use, and then 3-fold diluted with the culture solution, 8 degrees of dilution each.
3. Positive control drug: Pirodavir (LGM Pharma), which is a broad-spectrum anti-viral inhibitor.
(§2) 4. Test Method: Vero cells are seeded into a 96-well culture plate, at 5% CO2, and cultured at 37° C. for 16 hours. The Vero cells are added with different dilutions of drugs, and the degree of cytopathic effect (CPE) in each group is observed. The half toxic concentration (TC50) of each sample for Vero cells is calculated. Vero cells are added with 100TCID50 enterovirus EV71 respectively, and the virus solution is discarded after adsorption at 37° C. for 1 hour, and then drugs with various degrees of dilution are added respectively. Virus control and cell control are set and incubated at 37° C. The degree of cytopathic effect (CPE) in each group is observed when the degree of cytopathic effect (CPE) of virus control group reaches 4+. The half inhibitory concentration (IC50) of each sample for enterovirus EV71 are calculated. Selectivity Index (SI) is calculated according to the following equation: SI=TC50/IC50.

Vero cells = assay: Cytotoxicity of the compounds for Vero cells (CPE observation, TC50); format: cell-based; settings: no virus
Method: as §1, §2

| SMILES | IC50 [1] | melting point | SI (Selectivity Index = TC50/IC50) [1] | TC50 (half toxic concentration for Vero cells) (Vero cells) |
| --- | --- | --- | --- | --- |
| O=C(Nc1cccc(Br)c1)[C@H]1O[C@@H]1C(=O)N(Cc1ccccc1)c1ccccc1 [Compound 14, (2S,3S)—N^2-benzyl-N^2-phenyl-N^3-(3-bromophenyl)-2,3-epoxybutanediamide] | 1.43 µg/mL (≈ 3.17 µM) | 177.5 to 178.2 °C | 8.97 | 12.83 µg/mL |
| O=C(Nc1nccs1)[C@H]1O[C@@H]1C(=O)N(Cc1ccccc1)c1ccccc1 [Compound 2, (2S,3S)—N^2-benzyl-N^2-phenyl-N^3-(2-thiazolyl)-2,3-epoxybutanediamide] | 2.47 µg/mL (≈ 6.51 µM) | 146.6 to 147.4 °C | 4.32 | 10.68 µg/mL |

Further lines, with some results ahead:

| IC50 [1] | melting point | SMILES | SI (Selectivity Index = TC50/IC50) [1] | TC50 (half toxic concentration for Vero cells) (Vero cells) |
| --- | --- | --- | --- | --- |
| > 0.82 µg/mL | 198.7 to 199.5 °C | O=C(Nc1nc2ccccc2s1)c1ccc(N(Cc2ccc(F)cc2)C(=O)[C@H]2O[C@@H]2C(=O)Nc2ccc(Cl)cc2)cc1 [Compound 19, (2S,3S)—N^2-(4-(benzo[d]thiazol-2-ylcarbamoyl)phenyl)-N^3-(4-chlorophenyl)-N^2-(4-fluorobenzyl)-2,3-epoxybutanediamide] | – | 1.43 µg/mL |
| > 0.82 µg/mL | 196.3 to 197.1 °C | COC(=O)c1csc(NC(=O)[C@H]2O[C@@H]2C(=O)N(Cc2ccc(F)cc2)c2ccc(C(=O)Nc3nc4ccccc4s3)cc2)n1 [Compound 34, (2S,3S)—N^2-(4-(benzo[d]thiazol-2-ylcarbamoyl)phenyl)-N^2-(4-fluorobenzyl)-N^3-(4-methoxycarbonylthiazol-2-yl)-2,3-epoxybutanediamide] | – | 1.43 µg/mL |
| > 0.27 µg/mL | 189.2 to 190 °C | COc1ccccc1NC(=O)[C@H]1O[C@@H]1C(=O)N(Cc1ccc(F)cc1)c1ccc(C(=O)Nc2nc3ccccc3s2)cc1 [Compound 37, (2S,3S)—N^2-(4-(benzo[d]thiazol-2-ylcarbamoyl)phenyl)-N^3-(2-methoxyphenyl)-N^2-(4-fluorobenzyl)-2,3-epoxybutanediamide] | – | 0.82 µg/mL |
